# Test results reported in patent publication US20260206757A1, “METHODS OF CONTROLLING UNDESIRABLE PLANTS WITH PPO HERBICIDES AND COMBINATIONS IN HERBICIDE TOLERANT CROP PLANTS” (BASF AGRO B.V., priority 2022, published 2026).
# What was measured:
# Ambrosia artemisiifolia = experiment: Greenhouse experiment, post emergence herbicidal activity; type: in vivo; settings: AMBEL
# Description: (§1) For the post emergence treatment, the plants were first grown to the 2 to 4 leaf stage (GS 12/14). The plants were cultivated due to their individual requirements at 10-25° C. and 20-35° C. The plants were irrigated as required.
# (§2) Here, the herbicidal compositions were suspended or emulsified in water as distribution medium and sprayed using finely distributing nozzles. 1% methylated seed oil (MSO) has been added as adjuvant to each of the solo and mixture treatments.
# (§3) In the greenhouse experiments, the herbicidal activity for the individual herbicidal compositions (solo and mixture applications) was assessed 20/21 days after treatment (DAT).
# (§4) The evaluation for the damage on undesired weeds caused by the chemical compositions was carried out using a scale from 0 to 100%, compared to the untreated control plants. Here, 0 means no damage and 100 means complete destruction of the plants.
# Convolvulus arvensis = experiment: as above; type: in vivo; settings: CONAR
# Description: as §1, §2, §3, §4
# Chenopodium album = experiment: as above; type: in vivo; settings: CHEAL
# Description: as §1, §2, §3, §4
# Polygonum aviculare = experiment: as above; type: in vivo; settings: POLAV
# Description: as §1, §2, §3, §4
# Sonchus arvensis = experiment: as above; type: in vivo; settings: SONAR
# Description: as §1, §2, §3, §4
# Hibiscus trionum = experiment: as above; type: in vivo; settings: HIBTR
# Description: as §1, §2, §3, §4
# Matricaria chamomilla = experiment: as above; type: in vivo; settings: MATCH
# Description: as §1, §2, §3, §4
# Solanum nigrum = experiment: as above; type: in vivo; settings: SOLNI, BBCH 12-14, Flumioxazin 1, Fomesafen 123 g ai/ha
# Description: as §1, §2, §3, §4
# Abutilon theophrasti = experiment: as above; type: in vivo; settings: ABUTH
# Description: as §1, §2, §3, §4
# Echinochloa crus-galli [1] = experiment: as above; type: in vivo; settings: ECHCG
# Description: as §1, §2, §3, §4
# HELAN w F(383)I = experiment: Greenhouse experiment, crop safety of PPO inhibitor tolerant sunflower; type: in vivo, Helianthus annuus; settings: BBCH 12-14, Flumioxazin 0.5, Halauxifen 1 g ai/ha, scale 0 to 100%
# Description: as §1, §2, §3, §4
# Papaver rhoeas = experiment: Greenhouse experiment, post emergence herbicidal activity; type: in vivo; settings: PAPRH
# Description: as §1, §2, §3, §4
# Setaria viridis = experiment: as above; type: in vivo; settings: SETVI
# Description: as §1, §2, §3, §4
# HELAN Pacino = experiment: Greenhouse experiment, crop safety of sunflower; type: in vivo, Helianthus annuus; settings: BBCH 12-14, Flumioxazin 0.5, Halauxifen 1 g ai/ha, scale 0 to 100%
# Description: as §1, §2, §3, §4
# Mercuralis annua [2] = experiment: Greenhouse experiment, post emergence herbicidal activity; type: in vivo; settings: MERAN, BBCH 12-14, Flumioxazin 0.5, Imazamox 10 g ai/ha
# Description: as §1, §2, §3, §4
# Echinochloa crus-galli [3] = experiment: Field experiment, post-emergence herbicidal activity; type: in vivo; settings: ECHCG, postemergence
# Description: (§5) Trial Objective: Saflufenacil in tank mix with Pendimethalin efficacy on weeds and grasses in early post-emergence of the weeds
# (§6) On field test sites, natural weed infestation was treated, pre-emergence of the weeds on bare soil or post-emergence of the weeds.
# (§7) For the post emergence treatment, the weedy plants were treated between the 2-4 true leaf stage (GS12-14) and the 6 true leaf stage (GS 16). The herbicidal compositions were suspended or emulsified in water as distribution medium and sprayed with commercial flat fan nozzles using between 100 and 200 l/ha water.
# (§8) In the following experiments, the herbicidal activity for the individual herbicidal compositions (solo and mixture applications) was assessed up to 36 days after treatment (DAT). The assessments for the damage on undesired weeds caused by the chemical compositions was carried out using a scale from 0 to 100%, compared to the untreated control plants. Here, 0 means no damage and 100 means complete destruction of the plants.
# (§9) [formula] • where X=effect in percent using herbicide (A) at an application rate a; • Y=effect in percent using herbicide (B) at an application rate b; • E=expected effect (in %) of herbicide (A)+herbicide (B) at application rates a+b.
# (§10) The value E corresponds to the effect (plant damage or injury) which is to be expected if the activity of the individual compounds is additive. If the observed effect is higher than the value E calculated according to the Colby equation, a synergistic effect is present.
# Amaranthus retroflexus = experiment: as above; type: in vivo; settings: AMARE, postemergence
# Description: as §5, §6, §7, §8, §9, §10
# Mercuralis annua [4] = experiment: as above; type: in vivo; settings: MERAN, postemergence, Saflufenacil 12.5, Pendimethalin 1365 g ai/ha
# Description: as §5, §6, §7, §8, §9, §10
# Erigeron canadensis = experiment: Greenhouse experiment, post emergence herbicidal activity; type: in vivo; settings: ERICA, BBCH 12-14, Flumioxazin 1, Pyraflufen-ethyl 1.5 g ai/ha
# Description: as §1, §2, §3, §4
# Eleusine indica = experiment: Field experiment, pre-emergence herbicidal activity on bare ground; type: in vivo; settings: ELEIN, preemergence, Saflufenacil 25, Sulfentrazone 210 g ai/ha
# Description: (§11) Trial Objective: Efficacy of Saflufenacil in tank mix with Flumioxazin applied in pre-emergence of the weeds on bare ground.
# (§12) Trial Objective: Efficacy of Saflufenacil in tank mix with Sulfentrazone applied in pre-emergence of the weeds on bare ground.
# as §6
# (§13) For the pre-emergence treatment, the active compounds, suspended or emulsified in water, were applied by means of finely distributing nozzles on bare ground.
# as §8, §9, §10
# Urochloa texana = experiment: as above; type: in vivo; settings: PANTE, preemergence, Saflufenacil 25, Sulfentrazone 210 g ai/ha
# Description: as §11, §12, §6, §13, §8, §9, §10
# [5] = BBCH 12-14, Saflufenacil 0.5, Clethodim 30 g ai/ha
# [6] = BBCH 12-14, Flumioxazin 2, Fomesafen 123 g ai/ha
# [7] = BBCH 12-14, Flumioxazin 0.5, Halauxifen 1 g ai/ha
# [8] = BBCH 12-14, Flumioxazin 2, Halauxifen 1 g ai/ha
# [9] = BBCH 12-14, Saflufenacil 1, Imazamox 10 g ai/ha
# [10] = Saflufenacil 12.5, Pendimethalin 1064 g ai/ha
# [11] = BBCH 12-14, Flumioxazin 0.5, Pyraflufen-ethyl 1.5 g ai/ha
# [12] = BBCH 12-14, Flumioxazin 2, Tribenuron-methyl 6 g ai/ha
compound,measurement,setting,value
CCSC(C)CC1CC(=O)C(/C(CC)=N/OC/C=C/Cl)=C(O)C1 (stereo not drawn) [Clethodim],% Herbicidal activity,"Ambrosia artemisiifolia; BBCH 12-14, Saflufenacil 1, Clethodim 30 g ai/ha",10%
same,% Herbicidal activity,Convolvulus arvensis; [5],0%
same,% Herbicidal activity,"Chenopodium album; BBCH 12-14, Saflufenacil 4, Clethodim 30 g ai/ha",0%
same,% Herbicidal activity,Polygonum aviculare; [5],0%
same,% Herbicidal activity,Sonchus arvensis; [5],5%
same,% Herbicidal activity,Hibiscus trionum; [5],10%
same,% Herbicidal activity,Matricaria chamomilla; [5],0%
"CS(=O)(=O)NC(=O)c1cc(Oc2ccc(C(F)(F)F)cc2Cl)ccc1[N+](=O)[O-] [Fomesafen, 5-[2-Chloro-4-(trifluoromethyl)phenoxy]-N-(methanesulfonyl)-2-nitrobenzamide]",% Herbicidal activity,Solanum nigrum,90%
same,% Herbicidal activity,"Convolvulus arvensis; BBCH 12-14, Flumioxazin 0.5, Fomesafen 123 g ai/ha",70%
same,% Herbicidal activity,Chenopodium album; [6],80%
same,% Herbicidal activity,"Abutilon theophrasti; BBCH 12-14, Saflufenacil 2, Fomesafen 1 g ai/ha",94%
same,% Herbicidal activity,Echinochloa crus-galli [1]; [6],85%
same,% Herbicidal activity,"Echinochloa crus-galli [1]; BBCH 12-14, Saflufenacil 4, Fomesafen 123 g ai/ha",95%
same,% Herbicidal activity,"Matricaria chamomilla; BBCH 12-14, Flumioxazin 1, Fomesafen 123 g ai/ha",85%
COc1c(Cl)ccc(-c2cc(N)c(Cl)c(C(=O)O)n2)c1F [Halauxifen],Observed crop damage 21 days after treatment,HELAN w F(383)I,15%
same,% Herbicidal activity,Papaver rhoeas; [7],95%
same,% Herbicidal activity,Convolvulus arvensis; [7],60%
same,% Herbicidal activity,"Convolvulus arvensis; BBCH 12-14, Saflufenacil 0.5, Halauxifen 1 g ai/ha",70%
same,% Herbicidal activity,Sonchus arvensis; [8],65%
same,% Herbicidal activity,Setaria viridis; [7],70%
same,% Herbicidal activity,Matricaria chamomilla; [8],5%
same,% Herbicidal activity,"Matricaria chamomilla; BBCH 12-14, Saflufenacil 2, Halauxifen 1 g ai/ha",65%
same,Observed crop damage 21 days after treatment,HELAN Pacino,5%
"COCc1cnc(C2=NC(C)(C(C)C)C(=O)N2)c(C(=O)O)c1 (stereo not drawn) [Imazamox, 5-(methoxymethyl)-2-(4-methyl-5-oxo-4-propan-2-yl-1H-imidazol-2-yl)pyridine-3-carboxylic acid]",% Herbicidal activity,"Ambrosia artemisiifolia; BBCH 12-14, Flumioxazin 4, Imazamox 10 g ai/ha",85%
same,% Herbicidal activity,Ambrosia artemisiifolia; [9],75%
same,% Herbicidal activity,"Abutilon theophrasti; BBCH 12-14, Flumioxazin 1, Imazamox 10 g ai/ha",84%
same,% Herbicidal activity,"Setaria viridis; BBCH 12-14, Saflufenacil 0.5, Imazamox 10 g ai/ha",75%
same,% Herbicidal activity,Mercuralis annua [2],30%
same,% Herbicidal activity,"Hibiscus trionum; BBCH 12-14, Flumioxazin 0.5, Imazamox 10 g ai/ha",65%
same,% Herbicidal activity,Matricaria chamomilla; [9],35%
CCC(CC)Nc1c([N+](=O)[O-])cc(C)c(C)c1[N+](=O)[O-] [Pendimethalin],% Herbicidal activity,Echinochloa crus-galli [3]; [10],80%
same,% Herbicidal activity,"Echinochloa crus-galli [3]; Saflufenacil 12.5, Pendimethalin 1365 g ai/ha",36%
same,% Herbicidal activity,"Echinochloa crus-galli [3]; Saflufenacil 50, Pendimethalin 1064 g ai/ha",80%
same,% Herbicidal activity,"Amaranthus retroflexus; Saflufenacil 12.5, Pendimethalin 840 g ai/ha",37%
same,% Herbicidal activity,Amaranthus retroflexus; [10],80%
same,% Herbicidal activity,Mercuralis annua [4],42%
"CCOC(=O)COc1cc(-c2nn(C)c(OC(F)F)c2Cl)c(F)cc1Cl [Pyraflufen-ethyl, ethyl 2-[2-chloro-5-[4-chloro-5-(difluoromethoxy)-1-methylpyrazol-3-yl]-4-fluorophenoxy]acetate]",% Herbicidal activity,"Convolvulus arvensis; BBCH12-14, Flumioxazin 0.5, Pyraflufen-ethyl 1.5 g ai/ha",70%
same,% Herbicidal activity,Polygonum aviculare; [11],90%
same,% Herbicidal activity,Sonchus arvensis; [11],98%
same,% Herbicidal activity,Erigeron canadensis,80%
"Cc1nn(-c2cc(NS(C)(=O)=O)c(Cl)cc2Cl)c(=O)n1C(F)F [Sulfentrazone, N-{2,4-Dichloro-5-[4-(difluoromethyl)-3-methyl-5-oxo-4,5-dihydro-1H-1,2,4-triazol-1-yl]phenyl}methanesulfonamide]",% Herbicidal activity,Eleusine indica,80%
same,% Herbicidal activity,Urochloa texana,45%
"COC(=O)c1ccccc1S(=O)(=O)NC(=O)N(C)c1nc(C)nc(OC)n1 [Tribenuron-methyl, Methyl 2-[[(4-methoxy-6-methyl-1,3,5-triazin-2-yl)-methylcarbamoyl]sulfamoyl]benzoate]",% Herbicidal activity,Papaver rhoeas; [12],95%
same,% Herbicidal activity,"Ambrosia artemisiifolia; BBCH 12-14, Saflufenacil 1, Tribenuron-methyl 6 g ai/ha",90%
same,% Herbicidal activity,Setaria viridis; [12],25%
